Data taken from ChEMBL document CHEMBL1201862, “PubChem BioAssay data set” (2004).
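Assay format: 96-well plates, 48-hour exposure. The concentration for 50% growth inhibition is given as GI50.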 The source made the active and inactive calls. Cut-off read from the data, not from the text of the source: active = GI50 up to about 1.1 µM and inactive = higher.

How the values were obtained:
Assay in all cases: growth of human tumour cells (NCI), 48 h
786-0 = tested on: 786-0
A498 = tested on: A498
A549 = tested on: A549
ACHN = tested on: ACHN
BT-549 = tested on: BT-549
CAKI-1 = tested on: CAKI-1
CCRF-CEM = tested on: CCRF-CEM
COLO 205 = tested on: COLO 205
DU-145 = tested on: DU-145
EKVX = tested on: EKVX
HCC 2998 = tested on: HCC 2998
HCT-116 = tested on: HCT-116
HCT-15 = tested on: HCT-15
HL-60 = tested on: HL-60
HOP-62 = tested on: HOP-62
HT-29 = tested on: HT-29
Hs-578T = tested on: Hs-578T
IGROV-1 = tested on: IGROV-1
K562 = tested on: K562
KM12 = tested on: KM12
LOX IMVI = tested on: LOX IMVI
M14 = tested on: M14
MCF7 = tested on: MCF7
MDA-MB-231 = tested on: MDA-MB-231
MDA-MB-435 = tested on: MDA-MB-435
MDA-N = tested on: MDA-N
MOLT-4 = tested on: MOLT-4
Malme-3M = tested on: Malme-3M
NCI-H226 = tested on: NCI-H226
NCI-H23 = tested on: NCI-H23
NCI-H460 = tested on: NCI-H460
NCI/ADR-RES = tested on: NCI/ADR-RES
OVCAR-3 = tested on: OVCAR-3
OVCAR-4 = tested on: OVCAR-4
OVCAR-5 = tested on: OVCAR-5
OVCAR-8 = tested on: OVCAR-8
PC-3 = tested on: PC-3
RPMI-8226 = tested on: RPMI-8226
RXF 393 = tested on: RXF 393
SF-268 = tested on: SF-268
SF-295 = tested on: SF-295
SF-539 = tested on: SF-539
SK-MEL-28 = tested on: SK-MEL-28
SK-MEL-5 = tested on: SK-MEL-5
SK-OV-3 = tested on: SK-OV-3
SN12C = tested on: SN12C
SNB-19 = tested on: SNB-19
SNB-75 = tested on: SNB-75
SR = tested on: SR
SW-620 = tested on: SW-620
TK-10 = tested on: TK-10
U-251 = tested on: U-251
UACC-257 = tested on: UACC-257
UACC-62 = tested on: UACC-62
UO-31 = tested on: UO-31

## COc1ccc(C2C3=C(COC3=O)Oc3cc4c(cc32)OCO4)c(OC)c1 (stereo not given)
786-0
  GI50: 21.7 µM (inactive)
A498
  GI50: 16.1 µM (inactive)
A549
  GI50: 10.9 µM (inactive)
ACHN
  GI50: 19.9 µM (inactive)
BT-549
  GI50: 22.9 µM (inactive)
CAKI-1
  GI50: 18.6 µM (inactive)
CCRF-CEM
  GI50: 11.1 µM (inactive)
COLO 205
  GI50: 7 µM (inactive)
DU-145
  GI50: 26.3 µM (inactive)
EKVX
  GI50: 48.5 µM (inactive)
HCC 2998
  GI50: 20.8 µM (inactive)
HCT-116
  GI50: 6.24 µM (inactive)
HCT-15
  GI50: 5.73 µM
HL-60
  GI50: 4.34 µM (inactive)
HOP-62
  GI50: 30.3 µM (inactive)
HT-29
  GI50: 6.65 µM (inactive)
Hs-578T
  GI50: 13.6 µM (inactive)
IGROV-1
  GI50: 12.9 µM (inactive)
K562
  GI50: 4.3 µM (inactive)
KM12
  GI50: 5.19 µM (inactive)
LOX IMVI
  GI50: 4.31 µM (inactive)
M14
  GI50: 15 µM (inactive)
MCF7
  GI50: 6.89 µM (inactive)
MDA-MB-231
  GI50: 9.04 µM (inactive)
MDA-MB-435
  GI50: 2.28 µM (inactive)
MDA-N
  GI50: 2.09 µM (inactive)
MOLT-4
  GI50: 4.28 µM (inactive)
Malme-3M
  GI50: 14.9 µM (inactive)
NCI-H226
  GI50: 31.8 µM (inactive)
NCI-H23
  GI50: 19 µM (inactive)
NCI-H460
  GI50: 17.4 µM (inactive)
NCI/ADR-RES
  GI50: 10 µM (inactive)
OVCAR-3
  GI50: 5.52 µM (inactive)
OVCAR-4
  GI50: 8.11 µM (inactive)
OVCAR-5
  GI50: 43.5 µM (inactive)
OVCAR-8
  GI50: 44.4 µM (inactive)
PC-3
  GI50: 6.75 µM (inactive)
RPMI-8226
  GI50: 7.74 µM (inactive)
RXF 393
  GI50: 16.1 µM (inactive)
SF-268
  GI50: 34 µM (inactive)
SF-295
  GI50: 5.77 µM (inactive)
SF-539
  GI50: 12.6 µM (inactive)
SK-MEL-28
  GI50: 23 µM (inactive)
SK-MEL-5
  GI50: 10.7 µM (inactive)
SK-OV-3
  GI50: 17.3 µM (inactive)
SN12C
  GI50: 6.75 µM (inactive)
SNB-19
  GI50: 37.8 µM (inactive)
SNB-75
  GI50: 10.9 µM (inactive)
SR
  GI50: 4.99 µM (inactive)
SW-620
  GI50: 5.81 µM (inactive)
TK-10
  GI50: 62.1 µM (inactive)
U-251
  GI50: 19.3 µM (inactive)
UACC-257
  GI50: 47.9 µM (inactive)
UACC-62
  GI50: 6.79 µM (inactive)
UO-31
  GI50: 16.3 µM (inactive)
